Results as given in PubChem BioAssay AID328 (DTP/NCI, 2004).
“And” between values parts separate entries of the source, which are not always exact repeats. Equal values may be shown once. Inconclusive results and toxic doses are left out.

System: BDF1 mice, P388 leukemia ip, median survival T/C
Experiment: NCI In Vivo Anticancer Drug Screen. Data for tumor model P388 Leukemia (intraperitoneal) in B6D2F1 (BDF1) mice
Conditions: endpoint: median survival time, higher = longer survival
Procedure, shortened: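 Reported as T/C, where T is the survival measurement in dosed animals and C the same measurement in vehicle controls.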

[1] = dose: 100.0 mg/kg/injection, schedule: Q04DX003 (ip), vehicle: Klucel (hydroxypropylcellulose) (HPC)
[2] = dose: 200.0 mg/kg/injection, schedule: Q04DX003 (ip), vehicle: Klucel (hydroxypropylcellulose) (HPC)
[3] = dose: 25.0 mg/kg/injection, schedule: Q01DX009 (ip), vehicle: saline with Tween-80
[4] = dose: 50.0 mg/kg/injection, schedule: Q01DX009 (ip), vehicle: saline with Tween-80
[5] = dose: 100.0 mg/kg/injection, schedule: Q01DX009 (ip), vehicle: saline with Tween-80
[6] = dose: 200.0 mg/kg/injection, schedule: Q01DX009 (ip), vehicle: saline with Tween-80

With ClCc1c2ccccc2c(CCl)c2ccccc12 the T/C (dose: 0.21 mg/kg/injection, schedule: Q01DX009 (ip), vehicle: saline) was 154 % of control, the T/C (dose: 0.33 mg/kg/injection, schedule: Q01DX009 (ip), vehicle: saline) was 159 % of control and 190 % of control and the T/C (dose: 0.49 mg/kg/injection, schedule: Q01DX009 (ip), vehicle: saline) was 154 % of control. The T/C (dose: 1.3 mg/kg/injection, schedule: Q04DX003 (ip), vehicle: Klucel (hydroxypropylcellulose) (HPC)) was 150 % of control, the T/C (dose: 1.35 mg/kg/injection, schedule: Q01DX009 (ip), vehicle: saline) was 180 % of control and the T/C (dose: 1.5 mg/kg/injection, schedule: Q01DX009 (ip), vehicle: Klucel (hydroxypropylcellulose) (HPC)) was 153 % of control. For the same molecule, the T/C (dose: 2.0 mg/kg/injection, schedule: Q04DX003 (ip), vehicle: Klucel (hydroxypropylcellulose) (HPC)) was 170 % of control, the T/C (dose: 3.0 mg/kg/injection, schedule: Q01DX009 (ip), vehicle: Klucel (hydroxypropylcellulose) (HPC)) was 157 % of control and 200 % of control and the T/C (dose: 3.0 mg/kg/injection, schedule: Q04DX003 (ip), vehicle: Klucel (hydroxypropylcellulose) (HPC)) was 154 % of control and 166 % of control. For the same molecule, the T/C (dose: 5.0 mg/kg/injection, schedule: Q04DX003 (ip), vehicle: Klucel (hydroxypropylcellulose) (HPC)) was 168 % of control, the T/C (dose: 6.0 mg/kg/injection, schedule: Q01DX009 (ip), vehicle: Klucel (hydroxypropylcellulose) (HPC)) was 105 % of control and the T/C (dose: 8.0 mg/kg/injection, schedule: Q04DX003 (ip), vehicle: Klucel (hydroxypropylcellulose) (HPC)) was 154 % of control and 172 % of control. For the same molecule, the T/C (dose: 12.0 mg/kg/injection, schedule: Q04DX003 (ip), vehicle: Klucel (hydroxypropylcellulose) (HPC)) was 177 % of control.
For c1ccc(-c2c[nH]c(-c3ccccc3)c2)cc1, the T/C [1] was 104 % of control, the T/C [2] was 109 % of control and the T/C (dose: 400.0 mg/kg/injection, schedule: Q04DX003 (ip), vehicle: Klucel (hydroxypropylcellulose) (HPC)) was 109 % of control.
With CC12CCC3C(CCC4CC5(CCC43C)CO5)C1CCC2=O (stereo unspecified) the T/C (dose: 100.0 mg/kg/injection, schedule: Q04DX003 (ip), vehicle: saline with Tween-80) was 103 % of control, the T/C (dose: 200.0 mg/kg/injection, schedule: Q04DX003 (ip), vehicle: saline with Tween-80) was 103 % of control and the T/C (dose: 400.0 mg/kg/injection, schedule: Q04DX003 (ip), vehicle: saline with Tween-80) was 98 % of control.
With CN1OCC2CCCC(c3ccccc3)C21 (stereo unspecified) the T/C (dose: 50.0 mg/kg/injection, schedule: Q04DX003 (ip), vehicle: Klucel (hydroxypropylcellulose) (HPC)) was 100 % of control, the T/C [1] was 100 % of control and the T/C [2] was 100 % of control.
O=[N+]([O-])c1ccc(NS(=O)(=O)c2ccc(Cl)c(Cl)c2Cl)c([N+](=O)[O-])c1 was tested, and the T/C [3] was 96 % of control, the T/C [4] was 105 % of control and the T/C [5] was 102 % of control.
With Cc1ccc(-c2cc(C)n(C)[n+]2C)cc1 the T/C (dose: 12.5 mg/kg/injection, schedule: Q01DX009 (ip), vehicle: saline with Tween-80) was 108 % of control and the T/C [3] was 110 % of control.
In the case of O=[N+]([O-])c1cccc(N2CN(c3ccccc3)NC(c3ccccc3)=N2)c1, the T/C (dose: 12.5 mg/kg/injection, schedule: Q04DX003 (ip), vehicle: saline with Tween-80) is reported as 100 % of control, the T/C (dose: 25.0 mg/kg/injection, schedule: Q04DX003 (ip), vehicle: saline with Tween-80) is reported as 96 % of control and the T/C (dose: 50.0 mg/kg/injection, schedule: Q04DX003 (ip), vehicle: saline with Tween-80) is reported as 105 % of control.
With COC(=O)CCC(=O)c1ccc(OC)c(OC)c1 the T/C [4] was 115 % of control, the T/C [5] was 99 % of control and the T/C [6] was 99 % of control.
With CCC1=C(C)C(=O)C2CCCCC2C1=O (stereo unspecified) the T/C (dose: 100.0 mg/kg/injection, schedule: Q04DX003 (ip), vehicle: saline sonified) was 100 % of control, the T/C (dose: 200.0 mg/kg/injection, schedule: Q04DX003 (ip), vehicle: saline sonified) was 100 % of control and the T/C (dose: 400.0 mg/kg/injection, schedule: Q04DX003 (ip), vehicle: saline sonified) was 100 % of control.
With Nc1nc(N)c(N=Cc2ccccc2)c(=O)[nH]1 the T/C (dose: 100.0 mg/kg/injection, schedule: Q01DX001 (ip), vehicle: saline with Tween-80) was 108 % of control, the T/C (dose: 200.0 mg/kg/injection, schedule: Q01DX001 (ip), vehicle: saline with Tween-80) was 88 % of control and the T/C (dose: 400.0 mg/kg/injection, schedule: Q01DX001 (ip), vehicle: saline with Tween-80) was 97 % of control.
For CC(=O)CC(=O)Nc1ccccn1, the T/C [3] was 95 % of control, the T/C [4] was 92 % of control and the T/C [5] was 98 % of control. The T/C [6] was 104 % of control.
In the case of C=CC(OC)OC, the T/C (dose: 6.25 mg/kg/injection, schedule: Q04DX003 (ip), vehicle: saline) is reported as 95 % of control, the T/C (dose: 12.5 mg/kg/injection, schedule: Q04DX003 (ip), vehicle: saline) is reported as 100 % of control and the T/C (dose: 25.0 mg/kg/injection, schedule: Q04DX003 (ip), vehicle: saline) is reported as 104 % of control.
